By Kd is commonly meant the constant that tells how readily two partners part at equilibrium. Usually Km stands for the substrate concentration at which the rate is half of its maximum. As usually defined, the kcat is the number of substrate molecules converted per active site and unit of time at saturation. What is called kcat/Km is the second-order rate constant that governs catalysis at low substrate concentration.

Here are results for three molecules from article PMC3101196, “Trapping Conformational States Along Ligand-Binding Dynamics of Peptide Deformylase: The Impact of Induced Fit on Enzyme Catalysis” (PLoS Biology, 2011).

Where “and” joins values, the source holds several entries; their conditions need not be identical. Equal entries are not always repeated.

Data set [1] deals with T1, AtPDF variant I42A (Arabidopsis thaliana, UniProt Q9FUZ2, I122A).
T1 construct: Expression and purification of mature Arabidopsis thaliana PDF1B and all variants (i.e., AtPDF); made in house
Put plainly: biochemical. Here is the method: (§1) Assay of PDF activity was coupled to formate dehydrogenase, where the absorbance of NADH at 340 nm was measured at 37°C as previously described. […] The kinetics parameters were derived from iterative non-linear least square calculations using the Michaelis-Menten equation based on the experimental data (Sigma-Plot; Kinetics module). […] The data were then calculated according to the method of Henderson, which can be used to determine the dissociation constant of the tight-binding competitive enzyme inhibitor [28],[49],[72] by varying both the inhibitor and substrate concentrations. To determine K I, k 5, and k 6, the reaction was initiated by the addition of enzyme as previously described,[49]. […] From the set of values obtained at various concentrations of I, k5 and k6 could be derived using kobs = k6 + k5[I]/(KI + [I]).

Data set [2] concerns AtPDF wild-type (WT) and G41M and G41Q. The experiment in a line: ΔΔGbinding calculated from Kd values. The settings on record: calculated from the K d values for actinonin binding to WT and G41M and G41Q. Also noted: species or system Arabidopsis thaliana. Here is the method: The percentage of the distance required to make a hydrogen bond (2.8 Å) is reported (dark squares). […] The values were calculated as follows. For the WT, it corresponds to the RT ln(KI*/KI) value, where R is the ideal gas constant and T is the temperature in Kelvin. RT is 0.616 kcal.mol^−1 at 37°C. For the G41M and G41Q variants, the ΔΔGbinding corresponds to RT ln(KI-G41variant/KD-WT). The obtained values are similar to that obtained if the kcat/Km substitutes the KD value in the calculation (ΔΔGbinding = RT ln(kcat/Km –G41variant/kcat/Km –WT). (EPS) Click here for additional data file.

In data set [3] the target is T2, AtPDF (Arabidopsis thaliana, UniProt Q9FUZ2). The experiment in a line: PDF activity assay coupled to formate dehydrogenase (NADH absorbance at 340 nm). Here is the method: as §1
(§2) The enzyme concentration used in the assay was 100 nM.

Data set [4] deals with T2, AtPDF. The experiment in a line: Isothermal titration calorimetry (ITC). It is filed as binding. The settings on record: WT; from ITC (value in parentheses); 37°C. More on the design: Expression and purification of mature Arabidopsis thaliana PDF1B and all variants (i.e., AtPDF); made in house. Here is the method:
(§3) ITC experiments were performed using a VP-ITC isothermal titration calorimeter (Microcal Corp.). Experiments were performed at 37°C. […] A theoretical titration curve was fitted to the experimental data using the ORIGIN software (Microcal). This software uses the relationship between the heat generated after each injection and ΔH° (enthalpy change in kcal/mol), K A (the association binding constant in M^−1), n (number of binding sites per monomer), total protein concentration, and free and total ligand concentrations. The thermal stability of the WT and variants of Ni-AtPDF1B was studied by DSC using VP-DSC calorimetry (Microcal Corp.). DSC measurements were made with 10 µM protein solutions in buffer C. […] The same buffer was used as a reference. All solutions were degassed just before loading into the calorimeter. Scanning was performed at 1°C/min. The temperature dependence of the partial molar capacity (Cp) was expressed in kcal/K after subtracting the buffer signal using Origin(R) software.
The volume of each reaction was 10 µl, and injections were made at 240 s intervals. Top, raw data from the titration. Each peak corresponds to the injection. Bottom, the peaks in the upper panel were integrated with ORIGIN software and the values were plotted versus injection number. Each point corresponds to the heat in µcal generated by the reaction upon each injection. […]
For orientation: ITC needs no label: the signal is the heat of the interaction.

Data set [5] has as its target T3, AtPDF variant I130A (Arabidopsis thaliana, UniProt Q9FUZ2, I210A).
T3 construct: Expression and purification of mature Arabidopsis thaliana PDF1B and all variants (i.e., AtPDF); made in house
Put plainly: biochemical. The settings on record: for Ki: 100 nM enzyme. Here is the method: as §1, §2

The target in data set [6] is T4, AtPDF variant I42F (Arabidopsis thaliana, UniProt Q9FUZ2, I122F).
T4 construct: Expression and purification of mature Arabidopsis thaliana PDF1B and all variants (i.e., AtPDF); made in house
The experiment in a line: biochemical. The settings on record: for Ki: 100 nM enzyme. The protocol:
as §1, §2

In data set [7] the target is T5, AtPDF variant I42N (Arabidopsis thaliana, UniProt Q9FUZ2, I122N).
T5 construct: Expression and purification of mature Arabidopsis thaliana PDF1B and all variants (i.e., AtPDF); made in house
The experiment in a line: biochemical. The settings on record: for Ki: 100 nM enzyme. The protocol:
as §1, §2

Data set [8] deals with T6, AtPDF variant I42W (Arabidopsis thaliana, UniProt Q9FUZ2, I122W).
T6 construct: Expression and purification of mature Arabidopsis thaliana PDF1B and all variants (i.e., AtPDF); made in house
Put plainly: biochemical. The settings on record: for Ki: 100 nM enzyme. Here is the method:
as §1, §2
Target sequence in this assay (Q9FUZ2 83-273 I122W): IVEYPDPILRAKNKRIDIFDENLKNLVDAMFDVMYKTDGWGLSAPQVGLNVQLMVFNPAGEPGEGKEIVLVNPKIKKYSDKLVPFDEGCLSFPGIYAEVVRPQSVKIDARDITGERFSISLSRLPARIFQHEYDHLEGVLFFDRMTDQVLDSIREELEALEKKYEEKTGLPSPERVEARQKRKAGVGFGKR

Data set [9] deals with AtPDF variant G41Q (Arabidopsis thaliana, UniProt Q9FUZ2, G121Q). Put plainly: PDF activity assay coupled to formate dehydrogenase. The protocol: as §1
Data set [10] has as its system T7, AtPDF variant G41Q.
T7 construct: Expression and purification of mature Arabidopsis thaliana PDF1B and all variants (i.e., AtPDF); made in house
The experiment in a line: Differential scanning calorimetry (DSC), thermal stability. It is filed as binding, Arabidopsis thaliana. Here is the method: as §3

In data set [11] the test system is almost all of the AtPDF variants. Described as above. The format is binding, Arabidopsis thaliana. The protocol: as §3
For data set [12], the target named is T2, AtPDF. Described as above. The format is binding. Also noted: Expression and purification of mature Arabidopsis thaliana PDF1B and all variants (i.e., AtPDF); made in house. The settings on record: 10 µM protein, 20 µM actinonin; free enzyme 61°C. The protocol: as §3
Data set [13] deals with T8, AtPDF variant G41M (Arabidopsis thaliana, UniProt Q9FUZ2, G121M).
T8 construct: Expression and purification of mature Arabidopsis thaliana PDF1B and all variants (i.e., AtPDF); made in house
It is filed as biochemical. The settings on record: nm = not measurable. The protocol:
as §1

Data set [14] concerns the target T4, AtPDF variant I42F. The experiment in a line: Isothermal titration calorimetry (ITC). It is filed as binding. The protocol:
as §3
(§4) The volume of each reaction was 10 µl, and injections were made at 240 s intervals. Top, raw data from the titration. Each peak corresponds to the injection. Bottom, the peaks in the upper panel were integrated with ORIGIN software and the values were plotted versus injection number. Each point corresponds to the heat in µcal generated by the reaction upon each injection. The solid line is the curve fit to the data by the Origin program. This fit yields values for K d. Experiments were done with wild type protein and others variants, and gave similar raw data and curve fit. (A) WT; (B) variant G41M; (C) variant I42W. (EPS) Click here for additional data file.

Data set [15] has as its target T6, AtPDF variant I42W. The experiment in a line: Isothermal titration calorimetry (ITC). The format is binding. Here is the method: as §3, §4
Target sequence in this assay (Q9FUZ2 57-273 I122W): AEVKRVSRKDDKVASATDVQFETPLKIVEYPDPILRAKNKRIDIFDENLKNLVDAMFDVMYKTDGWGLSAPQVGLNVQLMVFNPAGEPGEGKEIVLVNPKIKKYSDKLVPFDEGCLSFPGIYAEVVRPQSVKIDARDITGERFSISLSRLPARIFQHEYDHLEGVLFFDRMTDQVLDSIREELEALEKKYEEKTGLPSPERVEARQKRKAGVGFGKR
The target in data set [16] is T8, AtPDF variant G41M. Put plainly: Isothermal titration calorimetry (ITC). The format is binding. The protocol: as §3, §4
Data set [17] addresses EcPDF (Escherichia coli, UniProt P0A6K3). The protocol:
as §1

The target of data set [18] is T8, AtPDF variant G41M. The experiment in a line: Differential scanning calorimetry (DSC), thermal stability. The format is binding. The protocol:
as §3

In data set [19] the test system is CSCC[C@H](NC=O)C(=O)N[C@@H](C)C(=O)N[C@@H](CO)C(=O)O. The experiment in a line: purified protein, by the assay type. The settings on record: other: G41Q, substrate Fo-Met-Ala-Ser, 100 nM enzyme, 750 µM NiCl2, 37°C.
Substrate in data set [20]: CSCC[C@H](NC=O)C(=O)N[C@@H](C)C(=O)N[C@@H](CO)C(=O)O
Put plainly: purified protein, by the assay type. The settings on record: other: WT, substrate Fo-Met-Ala-Ser, 100 nM enzyme, 750 µM NiCl2, 37°C.

The mark [21] stands for this setting: value is k5 multiplied by 10^3, no preincubation.
[22] abbreviates: value is k6 multiplied by 10^4, no preincubation.
Where [23] appears, read: KI*app, 2 mM substrate, actinonin preincubated 10 min at 37°C.
Setting [24] is: KI, no preincubation, started by adding enzyme.

T3 sequence (Q9FUZ2 57-273 I210A): as the sequence (Q9FUZ2 57-273 I122W) above, with W66I, I154A counted along it
Chain of EcPDF (P0A6K3 whole entry): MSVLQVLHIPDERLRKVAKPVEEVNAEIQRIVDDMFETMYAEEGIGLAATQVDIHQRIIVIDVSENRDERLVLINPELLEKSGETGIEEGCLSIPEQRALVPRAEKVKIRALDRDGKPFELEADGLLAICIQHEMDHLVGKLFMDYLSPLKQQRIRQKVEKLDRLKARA
T4 sequence (Q9FUZ2 57-273 I122F): as the sequence (Q9FUZ2 57-273 I122W) above, with W66F counted along it
T8 sequence (Q9FUZ2 57-273 G121M): as the sequence (Q9FUZ2 57-273 I122W) above, with G65M, W66I counted along it
T5 sequence (Q9FUZ2 57-273 I122N): as the sequence (Q9FUZ2 57-273 I122W) above, with W66N counted along it
Chain of AtPDF variant G41Q (Arabidopsis thaliana, UniProt Q9FUZ2, G121Q) (Q9FUZ2 83-273 G121Q): as the sequence (Q9FUZ2 83-273 I122W) above, with G39Q, W40I counted along it
T1 sequence (Q9FUZ2 57-273 I122A): as the sequence (Q9FUZ2 57-273 I122W) above, with W66A counted along it

Regarding `CCCCC[C@H](CC(=O)NO)C(=O)N[C@H](C(=O)N1CCC[C@H]1CO)C(C)C` [actinonin], the Kd in data set [1] was determined as 3 nM; in data set [3] it was 0.9 nM; in [4] it was 4.5 nM; in [6], 2.8 nM; in [7], 6.3 nM; in data set [9], 48 nM. The Kd in data set [14] amounted to 3.6 nM; in data set [15] it was 3.7 nM; in [16], 32 nM. The ΔΔGbinding in data set [2] was 2.2 to 2.4 kcal/mol. Moreover, the Ki in data set [3] (K I*, enzyme 100 nM, actinonin preincubated with enzyme 10 min at 37°C, assay initiated by substrate) was 0.9 ± 0.5 nM; in data set [3] (KI*app, Wild-type, 100 nM enzyme, 2 mM substrate, actinonin preincubated 10 min at 37°C), 2.3 ± 0.3 nM; in [5] (setting [23]), 1.5 ± 0.4 nM; in data set [5] (setting [24]) it was 36 ± 5 nM; in data set [6] (KI*app, I42F, 2 mM substrate, actinonin preincubated 10 min at 37°C), 2.8 ± 0.2 nM; in data set [6] (KI, I42F, no preincubation, started by adding enzyme) it was 43 ± 5 nM. Moreover, the Ki in data set [7] (KI*app, I42N, 2 mM substrate, actinonin preincubated 10 min at 37°C) was determined as 6.3 ± 0.4 nM; in [7] (KI, I42N, no preincubation, started by adding enzyme), 39 ± 4 nM; in data set [8] (setting [23]), 2.8 ± 0.4 nM; in data set [8] (setting [24]), 97 ± 6 nM. Moreover, the “binding free energy difference between the two complexes” value in data set [3] (WT, RT ln(KI*/KI), 37°C) amounted to 3.1 kcal/mol. For the same molecule, the “k6 (s^-1) x 10^4” value turned out to be 10 ± 1 s^-1 x 10^4 in data set [3] (Wild-type, Table S3 (with KI*app), value is k6 multiplied by 10^4); 21 ± 2 s^-1 x 10^4 in [5] (value is k6 multiplied by 10^4); 62 ± 6 s^-1 x 10^4 in [6] (I42F, value is k6 multiplied by 10^4); 101 ± 10 s^-1 x 10^4 in data set [7] (I42N, value is k6 multiplied by 10^4); 16 ± 2 s^-1 x 10^4 in data set [8] (value is k6 multiplied by 10^4). The “k4, dissociation of the primary enzyme-actinonin complex” value was 140 s⁻¹ and 140 ± 10 s⁻¹ in [3] (assumes k3 = 10^9 M−1.s^−1 (diffusion-limited)); 112 ± 10 s⁻¹ in data set [17] (assumes k3 = 10^9 M−1.s^−1). Further, the “k 5 (s^−1) ×10^3” value is 63±9 s^−1 ×10^3 and 63 ± 6 s^−1 ×10^3 in [3] (setting [21]); 170±20 s^−1 ×10^3 in data set [17] (setting [21]). In addition, the “k 6 (s^−1) ×10^4” value in data set [3] (setting [22]) is recorded as 4±1 s^−1 ×10^4; in data set [17] (setting [22]) it was 19±2 s^−1 ×10^4. The “k5 (s^-1) x 10^3” value in [5] (value is k5 multiplied by 10^3) is 49 ± 5 s^-1 x 10^3; in data set [6] (I42F, value is k5 multiplied by 10^3), 89 ± 9 s^-1 x 10^3; in [7] (I42N, value is k5 multiplied by 10^3), 52 ± 5 s^-1 x 10^3; in data set [8] (value is k5 multiplied by 10^3), 52 ± 5 s^-1 x 10^3. The “KI*app” value in [9] (G41Q, nm = not measurable) is given as “nM”; in data set [13], “nM”. For the same molecule, the “increase in the T m by actinonin” value in data set [10] and in data set [18] was 12 °C each time. Further, the “increase of T m by actinonin” value in data set [11] is “more than 20 °C”. For the same molecule, the “T m of AtPDF upon binding of the inhibitor” value in data set [12] was 81 °C.
As to “AtPDF variant G41Q (Arabidopsis thaliana; G121Q)”, in data set [19], the Km amounted to 6.7 ± 1.7 mM, the kcat was 0.14 ± 0.02 s⁻¹ and the kcat/Km is 20 ± 10 M⁻¹ s⁻¹.

B1: AtPDF (Arabidopsis thaliana) (protein)
chain: AEVKRVSRKDDKVASATDVQFETPLKIVEYPDPILRAKNKRIDIFDENLKNLVDAMFDVMYKTDGIGLSAPQVGLNVQLMVFNPAGEPGEGKEIVLVNPKIKKYSDKLVPFDEGCLSFPGIYAEVVRPQSVKIDARDITGERFSISLSRLPARIFQHEYDHLEGVLFFDRMTDQVLDSIREELEALEKKYEEKTGLPSPERVEARQKRKAGVGFGKR
With B1, in data set [20], the Km is on record as 6.5 ± 0.7 mM, the kcat was 37 ± 2 s⁻¹ and the kcat/Km was 5700 ± 600 M⁻¹ s⁻¹.
